Measured values from patent US6716878B1, “Antimicrobial agents” (Vernalis (Oxford) Limited, priority 1999, dated 2004).
Converted amounts (≈) assume the structure as drawn.

How the values were obtained:
E. coli strain DH5α = experiment: Minimal inhibitory concentration (MIC) against E. coli, two fold serial dilutions in 2xYT broth; format: cell-based; conditions: Escherichia coli; E. coli strain DH5α; 2xYT broth, 37° C., 18 hours; lowest drug concentration that inhibited visible growth; read-out: MIC (E. coli)
Protocol: (§1) Where MIC values are quoted for the compounds of the examples, those results were obtained by the method described in the Biological Example.
(§2) Minimal inhibitory concentrations (MIC) of inhibitors against E. coli strain DH5α (Genotype; F-φ80d/acZΔM 15Δ(lacZYA-argF)U 169 deoR recA1 endA1 hsdR17(rk^−, mk^+)phoA supE44λ^−thi-1 gyrA96 re/A1) obtained from GibcoBRL Life Technologies, or Staphylococcus capitis (American Type Culture Collection number 35661) were determined as follows. Stock solutions of each test compound were prepared by dissolution of the compound in dimethylsulfoxide at 10 mM. For the determination of the minimal inhibitory concentration, two fold serial dilutions were prepared in 2×YT broth (typtone 16 g/l, yeast extract 10 g/l, sodium chloride 5 g/l obtained from BIO 101 Inc, 1070 Joshua Way, Vista, Calif. 92083, USA) to yield 0.05 ml compound-containing medium per well. Inocula were prepared from cultures grown overnight in 2×YT broth at 37° C. Cell densities were adjusted to absorbance at 660 nm (a660)=0.1; the optical density-standardised preparations were diluted 1:1000 in 2×YT broth; and each well inoculated with 0.05 ml of the diluted bacteria. Microtiter plates were incubated at 37° C. for 18 hours in a humidified incubator. The MIC (μM) was recorded as the lowest drug concentration that inhibited visible growth.

[1] = tested on: Staphylococcus capitis (American Type Culture Collection number 35661); experiment: Minimal inhibitory concentration (MIC) against Staphylococcus capitis, two fold serial dilutions in 2xYT broth; format: cell-based; conditions: ATCC35661, Staphylococcus capitis ATCC 35661, 37° C., 18 hours, lowest drug concentration that inhibited visible growth, read-out: MIC (S. capitis)
Protocol: as §1, §2

CCCC[C@H](CN(O)C=O)C(=O)N[C@H](C(=O)c1cc2ccccc2o1)C(C)(C)C [Example 8, 2(R)-[(N-Formyl-N-hydroxyamino)-methyl]-hexanoic Acid-(1′(S)-(benzofuran-2-carbonyl)-2′,2′-dimethylpropyl)amide]
MIC (E. coli strain DH5α): 6.25 µM (≈ 2.52 µg/mL) | MIC [1]: 1.6 µM (≈ 0.644 µg/mL)
